From article PMC10827794 (2024)
Each block holds one molecule with its values, some of them ahead of it.

Tests used:
[1] = system: WT_14.2 (Oligo 14.2) (DNA, G4) ATAGAGAGTGATGGGGAGGGGGTGAGTGGAGGGTCAAGGAAGGCCCTCCCTGAGGTGGTGTTATTTGACGGGGGTCCACA; assay: fluorescence enhancement; settings: 1 μM DNA, 2 μM TO
[2] = system: WT_14.1 (Oligo 14.1) (DNA, G4) AAAGGGAAGTATGGCTGGTGTACCGGGAGCAAGGGAGAGGGAAGGAGGGGCCAAATTAATAGGCCCACGGT; assay: fluorescence enhancement; settings: 1 μM DNA, 2 μM TO
[3] = system: WT_5.1 (Oligo 5.1) (DNA, G4) TAGAGGACAGCGGGGAAGGCGGGCGGTGGGGCAGGGGGCCTGAAGCGGCGGTACCGGTGCTGGCGGCGGCAGCTGAGGCC; assay: fluorescence enhancement; settings: 1 μM DNA, 2 μM TO
[4] = system: WT_40.1 (Oligo 40.1) (DNA, G4) GGGGGCGGGGGCGGGGGTGGGGGGAAGAAAAATTCCTAGCTGTAGCTGACTGCA; assay: fluorescence enhancement; settings: 10 mM Tris-Cl pH 7.5, 25 °C, 1 μM DNA, 2 μM TO
[5] = system: WT_5.1 (Oligo 5.1) (DNA, G4) TAGAGGACAGCGGGGAAGGCGGGCGGTGGGGCAGGGGGCCTGAAGCGGCGGTACCGGTGCTGGCGGCGGCAGCTGAGGCC; assay: fluorescent intercalator displacement (G4-FID); settings: TO displaced; ligand 0-2.5 μM
[6] = system: WT_5.2 (Oligo 5.2) (DNA, G4) CCGCGCGGTGAGTCTAGGGCCTGGCACGACCCCTCTAGGGCGGCGTAATGTCCAGACCCA; assay: fluorescent intercalator displacement (G4-FID); settings: TO displaced; ligand 0-2.5 μM
[7] = system: WT_14.2 (Oligo 14.2) (DNA, G4) ATAGAGAGTGATGGGGAGGGGGTGAGTGGAGGGTCAAGGAAGGCCCTCCCTGAGGTGGTGTTATTTGACGGGGGTCCACA; assay: fluorescent intercalator displacement (G4-FID); settings: TO displaced; ligand 0-2.5 μM
[8] = system: WT_5.3 (Oligo 5.3) (DNA, G4) CGGCCAGCCTGCCCGTGGGGGGGCCAGGGGAAGCCGCCCGTCTGGGACGTGGGGTCCCCA; assay: fluorescent intercalator displacement (G4-FID); settings: TO displaced; ligand 0-2.5 μM
[9] = system: Template_8.1 with 8.1 primer (DNA, G4) CTGCCTGACAAGGGCTAGGGGGAGATCTGTGTTGGGTGACCAGGGCCATAAGTAAATTTCATCATACT/AGTATGATGAAATTTACTTATGG; assay: polymerase stop (primer extension); settings: KCl, 1 mM MgCl2; 40 mM Tris-HCl pH 8.0, 40 °C; ligand 0-20 μM; truncated products
[10] = system: Template_5.2 with 5.2 primer (DNA, G4) CCGCGCGGTGAGTCTAGGGCCTGGCACGACCCCTCTAGGGCGGCGTAATGTCCAGACCCA/CGTGGGTCTGGACAT; assay: polymerase stop (primer extension); settings: KCl, 1 mM MgCl2; 40 mM Tris-HCl pH 8.0, 40 °C; ligand 0-20 μM; truncated products
[11] = system: WT_8.1 (Oligo 8.1) (DNA, G4) CTGCCTGACAAGGGCTAGGGGGAGATCTGTGTTGGGTGACCAGGGCCATA; assay: fluorescent intercalator displacement (G4-FID); settings: TO displaced; ligand 0-2.5 μM
[12] = system: WT_14.1 (Oligo 14.1) (DNA, G4) AAAGGGAAGTATGGCTGGTGTACCGGGAGCAAGGGAGAGGGAAGGAGGGGCCAAATTAATAGGCCCACGGT; assay: fluorescent intercalator displacement (G4-FID); settings: TO displaced; ligand 0-2.5 μM
[13] = system: WT_5.1R (RNA, G4) GCGAAAGGGGAAGGCGGGCGGUGGGGCAGGGGGCCUGAAGCGGCCUAGCUGUAGCUGACUGCA; assay: fluorescence enhancement; settings: no added monovalent cation; 10 mM Tris-Cl pH 7.5, 0.01 mM EDTA, 25 °C; 2 μM RNA, 2 μM ThT; ~160-fold enhancement

binding [1]: yes | binding [2]: yes | binding [3]: yes | binding ([4]; 100 mM KCl, enhancement lower than without K+): yes | binding ([4]; no added monovalent cation, ~330-fold enhancement): yes
Structure (SMILES): CN1C(=Cc2cc[n+](C)c3ccccc23)Sc2ccccc21

DC50 [5]: 880 nM | DC50 [6]: 1039 nM | DC50 [7]: 629.6 nM | DC50 [8]: 956.3 nM | binding [9]: yes | binding [10]: yes | DC50 [11]: 479.1 nM | DC50 [12]: 897.7 nM
Structure (SMILES): C[n+]1ccc(-c2c3nc(c(-c4cc[n+](C)cc4)c4ccc([nH]4)c(-c4cc[n+](C)cc4)c4nc(c(-c5cc[n+](C)cc5)c5ccc2[nH]5)C=C4)C=C3)cc1

binding [13]: yes
Structure (SMILES): Cc1ccc2c(c1)sc(-c1ccc(N(C)C)cc1)[n+]2C
